This test has as its system Plasmodium berghei. Put plainly: Luciferase/luciferin-expressing antifolate-resistant parasites were used to infect a culture of HepG2 cells that were pre-incubated with compounds. Infected hepatocytes emit light due to the luciferase reaction. Assay results are presented as the percent inhibition of light emission compared to control. […]. The note with it: sporozoite; for IC90: read-out: LUCIFERASE INFECTION ASSAY - IC90. Format: functional.

Setting [1] is: read-out: LUCIFERASE INFECTION ASSAY - IC50.

Each structure is given as a SMILES string.

Regarding `CC(C)(C)c1ccc(-c2cnc3cnc(-c4ccc(N)nc4)cn23)cc1`, the IC90 amounted to 4.41 µM. The IC50 (PBLUC_HILL_SLOPE 8.01, PBLUC_R_SQUARED 0.801, read-out: LUCIFERASE INFECTION ASSAY - IC50) is 3.35 µM.
With `CC(=O)c1ccc(-c2ccc(C(=O)Nc3cnc4c(cnn4C(C)C)c3)o2)cc1`, the IC90 is 8.52 µM. In addition, the IC50 (HEPG2TOX_HILL_SLOPE 16.5, HEPG2TOX_R_SQUARED 0.628, PBLUC_HILL_SLOPE 4.19, PBLUC_R_SQUARED 0.524, read-out: LUCIFERASE INFECTION ASSAY - IC50) was determined as 5.04 µM.
In the case of `Cc1ccc(CCC2CCN(C(=O)CCCNC3=NS(=O)(=O)c4ccccc43)CC2)cc1`, the IC90 worked out at 3.84 µM. Also, the IC50 (HEPG2TOX_HILL_SLOPE 10.3, HEPG2TOX_R_SQUARED 0.945, PBLUC_HILL_SLOPE 12.1, PBLUC_R_SQUARED 0.567, read-out: LUCIFERASE INFECTION ASSAY - IC50) came out at 3.2 µM.
As for `COc1cccc(/C=C/c2nnc(O)c(C#N)c2C)c1`, the IC90 amounted to 6.75 µM. Further, for the setting “HEPG2TOX_HILL_SLOPE 3.05, HEPG2TOX_R_SQUARED 0.959, PBLUC_HILL_SLOPE 3.8, PBLUC_R_SQUARED 0.551, read-out: LUCIFERASE INFECTION ASSAY - IC50”, the IC50 is 3.79 µM.
Turning to `CCC(C)(C)C1CCc2c(sc(NC(=O)CN3CCOCC3)c2C#N)C1` (centres undefined), the concentration for an effect of 90% (IC90) was 8.57 µM. For the same compound, where the note is “PBLUC_HILL_SLOPE 4.77, PBLUC_R_SQUARED 0.355, read-out: LUCIFERASE INFECTION ASSAY - IC50”, the IC50 was 5.41 µM.
In the case of `CC(C)CC(N)c1csc(NC(=O)c2ccc(F)c(Cl)c2)n1` (centres undefined), the IC90 was more than 9.65 µM. Moreover, under setting [1], the IC50 came out at 8.74 µM.
Regarding `Cc1cccc2sc(NC(=O)c3cccc(S(=O)(=O)N4CCc5ccccc54)c3)nc12`, the IC90 is more than 10 µM. The IC50 under setting [1] is more than 10 µM.
In the case of `CN(CC(=O)Nc1nnc(-c2ccccc2)o1)Cc1ccccc1C(F)(F)F`, the IC90 came out at 3.69 µM. In addition, the IC50 (PBLUC_HILL_SLOPE 1.69E+03, PBLUC_R_SQUARED 0.413, read-out: LUCIFERASE INFECTION ASSAY - IC50) stood at 3.69 µM.
As to `CCC(CO)Nc1ccc2ncc(-c3ccc(OC)nc3)n2n1` (centres undefined), the IC90 was determined as 5.43 µM. The IC50 (PBLUC_HILL_SLOPE 2.84, PBLUC_R_SQUARED 0.538, read-out: LUCIFERASE INFECTION ASSAY - IC50) is 2.51 µM.
`CCCc1cc(=O)n2ncc(-c3ccc(Cl)cc3)c2[nH]1`: the IC90 was found to be 3.65 µM. Further, under “HEPG2TOX_HILL_SLOPE 1.31, HEPG2TOX_R_SQUARED 0.875, PBLUC_HILL_SLOPE 1.68, PBLUC_R_SQUARED 0.622, read-out: LUCIFERASE INFECTION ASSAY - IC50”, the IC50 was 0.989 µM.
For `CCOc1ccc2nc3cc(N)ccc3c(N)c2c1` [ETHACRIDINE], the IC90 was more than 9.61 µM. Besides, the IC50 (HEPG2TOX_HILL_SLOPE 3.77, HEPG2TOX_R_SQUARED 0.987, read-out: LUCIFERASE INFECTION ASSAY - IC50) was more than 9.61 µM.
In the case of `Cc1ccc2nc(NC(=O)c3ccc(F)c(F)c3)c(C(=O)NCC(C)C)n2c1`, the IC90 is more than 8.54 µM. For the same compound, the IC50 (PBLUC_HILL_SLOPE 0.472, PBLUC_R_SQUARED 0.144, read-out: LUCIFERASE INFECTION ASSAY - IC50) was more than 8.54 µM.
For `O=C(Nc1ncccc1O)c1ccc(-c2ccccc2)cc1`, the IC90 was found to be 8 µM. Also, under setting [1], the IC50 is 4.59 µM.
With `c1csc(CNc2ccc3ncc(-c4ccc5[nH]ccc5c4)n3n2)c1`, the IC90 is more than 9.55 µM. Further, the IC50 (HEPG2TOX_HILL_SLOPE 1.89, HEPG2TOX_R_SQUARED 0.971, PBLUC_HILL_SLOPE 2.39, PBLUC_R_SQUARED 0.271, read-out: LUCIFERASE INFECTION ASSAY - IC50) stood at 4.86 µM.
Consider `CNc1nc2cnc(Nc3ccc(C(F)(F)F)cc3)cc2n1Cc1ccccc1`, for which the IC90 is more than 10 µM. For the same compound, under “HEPG2TOX_HILL_SLOPE 3.2, HEPG2TOX_R_SQUARED 0.033, read-out: LUCIFERASE INFECTION ASSAY - IC50”, the IC50 is more than 10 µM.
For the compound `Cc1cc2n(n1)c(C)cc(C)[n+]2-c1ccccc1`, the IC90 was 4.57 µM. Moreover, under “FFLUC_HILL_SLOPE 7.82, FFLUC_R_SQUARED 0.313, HEPG2TOX_HILL_SLOPE 3.53, HEPG2TOX_R_SQUARED 0.979, PBLUC_HILL_SLOPE 9.65, PBLUC_R_SQUARED 0.44, read-out: LUCIFERASE INFECTION ASSAY - IC50”, the IC50 turned out to be 3.64 µM.
With `O=C(Nc1cc(S(=O)(=O)N2CCCCCC2)ccc1OCC(F)(F)F)c1cccc2c[nH]nc12`, the IC90 was more than 10 µM. Moreover, the IC50 under setting [1] is more than 10 µM.
On to `CSc1sc(C(=O)Nc2ccc(Cl)cc2)c2c1S(=O)(=O)N(C)c1ccccc1-2`, for which the IC90 was more than 7.32 µM. Moreover, the IC50 under setting [1] is more than 7.32 µM.
For the compound `CCC(=O)c1cn(S(=O)(=O)c2ccc(C)cc2)c2ccccc12`, the concentration for an effect of 90% (IC90) came out at 3.32 µM. Besides, the IC50 (HEPG2TOX_HILL_SLOPE 1.47, HEPG2TOX_R_SQUARED 0.948, PBLUC_HILL_SLOPE 16.3, PBLUC_R_SQUARED 0.746, read-out: LUCIFERASE INFECTION ASSAY - IC50) came to 2.9 µM.
With `CCCCc1ccc(N(C(=O)Nc2ccc(Cl)cc2)C2=NC(CC)CS2)cc1` (centres undefined), the IC90 is more than 10 µM. Also, the IC50 (PBLUC_HILL_SLOPE 93.6, PBLUC_R_SQUARED 0.111, read-out: LUCIFERASE INFECTION ASSAY - IC50) was found to be 9.99 µM.
Regarding `COc1cc(C(=O)NCCN(C(C)C)C(C)C)cc(OC)c1C`, the IC90 is more than 10 µM. Further, the IC50 under setting [1] was more than 10 µM.
On to `Cc1occc1C(=O)NNC(=O)c1csc(-c2ccc(C(C)C)cc2)n1`, for which the IC90 is more than 10 µM. Also, for the setting “PBLUC_HILL_SLOPE 2.06, PBLUC_R_SQUARED 0.34, read-out: LUCIFERASE INFECTION ASSAY - IC50”, the IC50 was 8.1 µM.
Take `COc1cc(-c2cn3c(-c4ccc5ncccc5c4)cnc3cn2)cc(OC)c1OC`: the IC90 was 7.92 µM. The IC50 (HEPG2TOX_HILL_SLOPE 2.69, HEPG2TOX_R_SQUARED 0.906, PBLUC_HILL_SLOPE 2.74, PBLUC_R_SQUARED 0.535, read-out: LUCIFERASE INFECTION ASSAY - IC50) was 3.55 µM.
As for `COc1ccc(-c2cnc3cnc(-c4ccc(C(=O)NC5CCCC5)cc4)cn23)cc1`, the IC90 is 7.76 µM. The IC50 (PBLUC_HILL_SLOPE 11.3, PBLUC_R_SQUARED 0.296, read-out: LUCIFERASE INFECTION ASSAY - IC50) was 6.39 µM.
Consider `Cc1ccc(CCCNC(=O)c2cc(C3CC3)n[nH]2)c(C)c1`, for which the IC90 is 4.2 µM. For the same compound, under “PBLUC_HILL_SLOPE 15.6, PBLUC_R_SQUARED 0.22, read-out: LUCIFERASE INFECTION ASSAY - IC50”, the IC50 came to 3.65 µM.
Turning to `CCCn1c(NC(=O)c2cccnc2SC)nc2ccccc21`, the IC90 was more than 10 µM. For the setting “PBLUC_HILL_SLOPE 14.8, PBLUC_R_SQUARED 0.146, read-out: LUCIFERASE INFECTION ASSAY - IC50”, the IC50 stood at 9.22 µM.
Turning to `CCCc1cc(=O)n2nc(COc3ccccc3)c(-c3ccccc3)c2[nH]1`, the IC90 amounted to 5.37 µM. Also, the half-maximal inhibitory concentration (IC50) (HEPG2TOX_HILL_SLOPE 7.2, HEPG2TOX_R_SQUARED 0.777, PBLUC_HILL_SLOPE 5.33, PBLUC_R_SQUARED 0.154, read-out: LUCIFERASE INFECTION ASSAY - IC50) was 3.56 µM.

These data come from ChEMBL document CHEMBL4483862, “Open-source discovery of chemical leads for next-generation chemoprotective antimalarials” (2018).
